pIC50: −log10 of the molar value. Where a SMILES comes first, the peptide text is derived from it. [ ]: non-standard residue; d: D form. The star is where a group is joined. ξ: configuration not given here. Camptothecin(20R,20-O) = CC[C@]1(O*)C(=O)OCc2c1cc1n(c2=O)Cc2cc3ccccc3nc2-1; X9 = C[C@H]1O[C@@H](Oc2ccc(NC(=S)*)cc2)[C@@H](O)[C@@H](OCCO)[C@H]1O; X8 = C[C@H]1OC(Oc2ccc(NC(=S)*)cc2)[C@@H](O)[C@@H](OCC(=O)O)[C@H]1O; X4 = CO[C@H]1[C@H](O)[C@@H](Oc2ccc(NC(=S)*)cc2)O[C@@H](C)[C@H]1O; X6 = CO[C@@H]1[C@H](O)[C@H](Oc2ccc(NC(=S)*)cc2)O[C@H](C)[C@@H]1O; X1 = CO[C@H]1[C@@H](O)[C@@H](C)OC(Oc2ccc(NC(=S)*)cc2)[C@H]1O; X7 = OC[C@H]1OC(Oc2ccc(NC(=S)*)cc2)[C@@H](O)[C@@H](O)[C@H]1O; X2 = CC[C@@]1(O*)C(=O)OCc2c1cc1n(c2=O)Cc2cc3ccccc3nc2-1; Ile(3ξ) = CCC(C)[C@H](N)C(=O)O
Key:
Assay in all cases: Growth inhibition test (MTT) for cytotoxic properties on tumour cell lines
Type in all cases: cell-based
[1] = tested on: SW 480 human large intestine cell line; settings: SW480 cells, growth checked after day 6, read-out: IC50 of the cytotoxic action on tumour cell lines, SW480
Experimental: (§1) A: Growth Inhibition Test for the Determination of the Cytotoxic Properties on Various Tumour Cell Lines
(§2) The human large intestine cell lines SW 480 and HT29 (ATCC No. CCL 228 and HTB38 and the mouse melanoma cell line B16F10 (CRL 6475) were grown to confluence in Roux dishes in RPMI 1640 medium with addition of 10% FCS. They were then trypsinized and taken up in RPMI plus 10% FCS to a cell count of 50,000 cells or, for B16F10, 20,000 cells per ml. 100 μl of cell suspension/well were added to a 96 microwell plate and incubated at 37° C. for 1 day in a CO2 incubator. A further 100 μl of RPMI medium and 1 μl of DMSO were then added with the test substances. The growth was checked after day 6. For this, 25 μl of MTT solution (3-(4,5-dimethylthiazol-2-yl)-2,5-diphenyltetrazolium bromide) was added to each well at a starting concentration of 5 mg/ml of H2O. The plate was incubated at 37° C. for 5 hours in a CO2 incubator. The medium was then aspirated and 100 μl of 1-propanol/well were added. After shaking with 100 μl of H2O for 30 min, the extinction was measured at 595 nm using a Multiplate Reader (BIO-RAD 3550-UV).
(§3) The cytostatic action is indicated in Table 1 as an IC50 value, in each case for the individual cell lines.

[2] = tested on: HT29 human large intestine cell line; settings: HT29 cells, growth checked after day 6, read-out: IC50 of the cytotoxic action on tumour cell lines, HT29
Experimental: as §1, §2, §3

[3] = tested on: B16F10 mouse melanoma cell line; settings: B16F10 cells, growth checked after day 6, read-out: IC50 of the cytotoxic action on tumour cell lines, B16F10
Experimental: as §1, §2, §3

| Compound | pIC50 [1] | pIC50 [2] | pIC50 [3] |
| --- | --- | --- | --- |
| CC[C@@]1(OC(=O)[C@H](NC(=O)[C@@H](Cc2c[nH]cn2)NC(=O)CNC(=O)[C@H](CC(C)C)NC(=O)[C@H]2CCCN2C(=S)Nc2ccc(OC3O[C@H](C)[C@H](O)[C@H](OC)[C@@H]3O)cc2)C(C)C)C(=O)OCc2c1cc1n(c2=O)Cc2cc3ccccc3nc2-1 (stereo partly drawn) [Example 1] | 6.82 | 7.15 | 6.82 |
| CC[C@@]1(OC(=O)[C@H](NC(=O)[C@@H](CSC)NC(=O)[C@@H](CC(C)C)NC(=O)CNC(=O)[C@H](CC(C)C)NC(=O)[C@H]2CCCN2C(=S)Nc2ccc(OC3O[C@H](C)[C@H](O)[C@H](OC)[C@@H]3O)cc2)C(C)C)C(=O)OCc2c1cc1n(c2=O)Cc2cc3ccccc3nc2-1 (stereo partly drawn) [Example 8] (X1-[dP]LG[dL][dC](Me)[dV]-X2) | 7.30 | 7.40 | 6.82 |
| CC[C@]1(OC(=O)[C@H](NC(=O)[C@@H](CCCCN)NC(=O)[C@@H](CC(C)C)NC(=O)CNC(=O)[C@H](CC(C)C)NC(=O)[C@H]2CCCN2C(=S)Nc2ccc(O[C@@H]3O[C@H](C)[C@H](O)[C@H](OC)[C@@H]3O)cc2)C(C)C)C(=O)OCc2c1cc1n(c2=O)Cc2cc3ccccc3nc2-1 [Example 10] (X6-[dP]LG[dL][dK][dV]-{Camptothecin(20R,20-O)}) | 7.10 | 7.15 | 6.82 |
| CC[C@@]1(OC(=O)[C@H](NC(=O)[C@@H](Cc2c[nH]cn2)NC(=O)[C@@H](CC(C)C)NC(=O)CNC(=O)[C@H](CC(C)C)NC(=O)[C@H]2CCCN2C(=S)Nc2ccc(OC3O[C@H](C)[C@H](O)[C@H](OC)[C@@H]3O)cc2)C(C)C)C(=O)OCc2c1cc1n(c2=O)Cc2cc3ccccc3nc2-1 (stereo partly drawn) [Example 11] (X1-[dP]LG[dL][dH][dV]-X2) | 6.70 | 7.10 | 6.52 |
| CC[C@@]1(OC(=O)[C@H](NC(=O)[C@@H](Cc2c[nH]cn2)NC(=O)[C@@H](CC(C)C)NC(=O)CNC(=O)[C@H](CC(C)C)NC(=O)[C@H]2CCCN2C(=S)Nc2ccc(OC3O[C@H](C)[C@H](O)[C@H](OC)[C@@H]3O)cc2)C(C)C)C(=O)OCc2c1cc1n(c2=O)Cc2cc3ccccc3nc2-1 (stereo partly drawn) [Example 13] (X1-[dP]LG[dL][dH][dV]-X2) | 7.00 | 7.15 | 6.70 |
| CC[C@@]1(OC(=O)[C@@H](NC(=O)[C@@H](C)NC(=O)[C@H](CC(C)C)NC(=O)CNC(=O)[C@H](CC(C)C)NC(=O)[C@@H]2CCCN2C(=S)Nc2ccc(O[C@H]3O[C@@H](C)[C@@H](O)[C@@H](OC)[C@@H]3O)cc2)C(C)C)C(=O)OCc2c1cc1n(c2=O)Cc2cc3ccccc3nc2-1 [Example 14] (X4-PLGL[dA]V-X2) | 6.15 | 6.05 | 5.70 |
| CC[C@@]1(OC(=O)[C@@H](NC(=O)[C@@H](NC(=O)[C@H](CC(C)C)NC(=O)CNC(=O)[C@H](CC(C)C)NC(=O)[C@@H]2CCCN2C(=S)Nc2ccc(O[C@H]3O[C@@H](C)[C@@H](O)[C@@H](OC)[C@@H]3O)cc2)C(C)C)C(C)C)C(=O)OCc2c1cc1n(c2=O)Cc2cc3ccccc3nc2-1 [Example 15] (X4-PLGLVV-X2) | 7.10 | 7.00 | 6.40 |
| CC[C@@]1(OC(=O)[C@@H](NC(=O)[C@H](Cc2ccccc2)NC(=O)[C@H](CC(C)C)NC(=O)CNC(=O)[C@H](CC(C)C)NC(=O)[C@@H]2CCCN2C(=S)Nc2ccc(O[C@H]3O[C@@H](C)[C@@H](O)[C@@H](OC)[C@@H]3O)cc2)C(C)C)C(=O)OCc2c1cc1n(c2=O)Cc2cc3ccccc3nc2-1 [Example 16] (X4-PLGLFV-X2) | 7.22 | 7.10 | 6.60 |
| CC[C@@]1(OC(=O)[C@@H](NC(=O)[C@H](CO)NC(=O)[C@H](CC(C)C)NC(=O)CNC(=O)[C@H](CC(C)C)NC(=O)[C@@H]2CCCN2C(=S)Nc2ccc(O[C@H]3O[C@@H](C)[C@@H](O)[C@@H](OC)[C@@H]3O)cc2)C(C)C)C(=O)OCc2c1cc1n(c2=O)Cc2cc3ccccc3nc2-1 [Example 17] (X4-PLGLSV-X2) | 7.40 | 7.15 | 6.70 |
| CCC(C)[C@H](NC(=O)[C@H](CC(C)C)NC(=O)CNC(=O)[C@H](CC(C)C)NC(=O)[C@@H]1CCCN1C(=S)Nc1ccc(O[C@H]2O[C@@H](C)[C@@H](O)[C@@H](OC)[C@@H]2O)cc1)C(=O)N[C@H](C(=O)O[C@]1(CC)C(=O)OCc2c1cc1n(c2=O)Cc2cc3ccccc3nc2-1)C(C)C (stereo partly drawn) [Example 18] (X4-PLGL[Ile(3ξ)]V-X2) | 7.00 | 6.70 | 6.22 |
| CC[C@@]1(OC(=O)[C@@H](NC(=O)[C@H](CCC(=O)O)NC(=O)[C@H](CC(C)C)NC(=O)CNC(=O)[C@H](CC(C)C)NC(=O)[C@@H]2CCCN2C(=S)Nc2ccc(O[C@H]3O[C@@H](C)[C@@H](O)[C@@H](OC)[C@@H]3O)cc2)C(C)C)C(=O)OCc2c1cc1n(c2=O)Cc2cc3ccccc3nc2-1 [Example 19] (X4-PLGLEV-X2) | 6.70 | 6.40 | 5.82 |
| CC[C@@]1(OC(=O)[C@@H](NC(=O)CNC(=O)[C@H](CC(C)C)NC(=O)CNC(=O)[C@H](CC(C)C)NC(=O)[C@@H]2CCCN2C(=S)Nc2ccc(O[C@H]3O[C@@H](C)[C@@H](O)[C@@H](OC)[C@@H]3O)cc2)C(C)C)C(=O)OCc2c1cc1n(c2=O)Cc2cc3ccccc3nc2-1 [Example 20] (X4-PLGLGV-X2) | 6.92 | 6.60 | 6.10 |
| CC[C@@]1(OC(=O)[C@@H](NC(=O)[C@@H]2CCCN2C(=O)[C@H](CC(C)C)NC(=O)CNC(=O)[C@H](CC(C)C)NC(=O)[C@@H]2CCCN2C(=S)Nc2ccc(O[C@H]3O[C@@H](C)[C@@H](O)[C@@H](OC)[C@@H]3O)cc2)C(C)C)C(=O)OCc2c1cc1n(c2=O)Cc2cc3ccccc3nc2-1 [Example 21] (X4-PLGLPV-X2) | 7.00 | 6.60 | 6.10 |
| CC[C@@]1(OC(=O)[C@@H](NC(=O)[C@H](C)NC(=O)[C@H](CC(C)C)NC(=O)CNC(=O)[C@H](CC(C)C)NC(=O)[C@@H]2CCCN2C(=S)Nc2ccc(O[C@H]3O[C@@H](C)[C@@H](O)[C@@H](OC)[C@@H]3O)cc2)C(C)C)C(=O)OCc2c1cc1n(c2=O)Cc2cc3ccccc3nc2-1 [Example 22] (X4-PLGLAV-X2) | 7.40 | 7.15 | 6.60 |
| CC[C@@]1(OC(=O)[C@H](NC(=O)[C@@H](CC(N)=O)NC(=O)[C@@H](CC(C)C)NC(=O)CNC(=O)[C@H](CC(C)C)NC(=O)[C@H]2CCCN2C(=S)Nc2ccc(OC3O[C@H](C)[C@H](O)[C@H](OCC(=O)O)[C@@H]3O)cc2)C(C)C)C(=O)OCc2c1cc1n(c2=O)Cc2cc3ccccc3nc2-1 (stereo partly drawn) [Example 23] (X8-[dP]LG[dL][dN][dV]-X2) | 6.70 | 6.92 | 6.10 |
| CC[C@@]1(OC(=O)[C@H](NC(=O)[C@@H](CC(N)=O)NC(=O)[C@@H](CC(C)C)NC(=O)CNC(=O)[C@H](CC(C)C)NC(=O)[C@H]2CCCN2C(=S)Nc2ccc(OC3O[C@H](CO)[C@H](O)[C@H](O)[C@@H]3O)cc2)C(C)C)C(=O)OCc2c1cc1n(c2=O)Cc2cc3ccccc3nc2-1 (stereo partly drawn) [Example 24] (X7-[dP]LG[dL][dN][dV]-X2) | 6.70 | 7.00 | 6.30 |
| CC[C@]1(OC(=O)[C@H](NC(=O)[C@@H](CC(N)=O)NC(=O)[C@@H](CC(C)C)NC(=O)CNC(=O)[C@H](CC(C)C)NC(=O)[C@H]2CCCN2C(=S)Nc2ccc(O[C@@H]3O[C@H](C)[C@H](O)[C@H](OCCO)[C@@H]3O)cc2)C(C)C)C(=O)OCc2c1cc1n(c2=O)Cc2cc3ccccc3nc2-1 [Example 25] (X9-[dP]LG[dL][dN][dV]-{Camptothecin(20R,20-O)}) | 6.74 | 6.82 | 6.10 |
